Columns and labels:
[1] = test system: MCF-7 cells from a breast cancer of human origin; assay: Cytotoxicity on MCF-7 cells (MTT viability test); format: cell-based; settings: for mortality at 0.195 µM: MCF7, 0.195 μM; for mortality at 0.391 µM: MCF7, 0.391 μM; for mortality at 0.781 µM: MCF7, 0.781 μM; for mortality at 1.562 µM: MCF7, 1.562 μM; for mortality at 3.125 µM: MCF7, 3.125 μM; for mortality at 6.25 µM: MCF7, 6.25 μM; for mortality at 12.5 µM: MCF7, 12.5 μM; for mortality at 25 µM: MCF7, 25 μM; for mortality at 50 µM: MCF7, 50 μM
Protocol: The MCF-7 cells from a breast cancer of human origin are cultivated, in an atmosphere of a gaseous mixture of 95% air and 5% CO2, saturated with water, two days before the test, in order to be in a growth phase during the toxicity test. The cells are trypsinized and are collected in a RPMI 1640 medium containing 10% FCS, 10 mM HEPES, 1 mM pyruvate, 4 mM L-glutamine, 100 U/ml penicillin, 100 μg/ml streptomycin, in order to be centrifuged at 1,500 rpm for 10 minutes. The cell pellet is resuspended in the same medium in order to obtain a cell density of 30,000 cells/cm^2.
The compounds of general structure IA described in the present invention are solubilised at 10 mM in absolute ethanol and diluted in RPMI-10% FCS culture medium, the final volume of ethanol in the reaction medium is 0.5% (v/v). The molecules are studied at the following concentrations: 50; 25; 12.5; 6.25; 3.125; 1.562; 0.781; 0.391 and 0.195 μM. Two controls are carried out, in the presence and in the absence of ethanol respectively, using 100 μl of cell suspension of 30,000 cells/cm^2 incubated with 100 μl of RPMI-10% FCS medium and ±0.5% of ethanol (v/v).
Before starting the study, the cells are rinsed with PBS buffer which contains neither calcium nor magnesium. The cells are then incubated with 200 μl of compound under test, or with the medium containing or not 0.5% of ethanol (controls) for either 24 or 48 hours under an atmosphere of a gaseous mixture of 95% air and 5% CO2, saturated with water, at 37° C., then submitted to the viability test with MTT according to the following protocol.
To 200 μl of culture medium are added 50 μl of MTT at 5 mg/ml in PBS buffer. After 4 hours of incubation at 37° C., the plate is centrifuged for 10 minutes at 3,000 rpm. The supernatant is removed and the cell pellet is resuspended in 100 μl of DMSO. This is left to incubate for 10 minutes with stirring at 37° C. The coloration developed is measured at 550 nm against DMSO. The optical density OD=f(living cells) can then be plotted as a function of time.

[2] = test system: NADPH in the presence of glutathione (GSH) and glutathione disulfide reductase; assay: Glutathione oxidase activity (consumption of NADPH in the presence of GSH and glutathione disulfide reductase); format: biochemical; settings: pH 7.3, 37° C.
Protocol: To 1.5 ml of 50 mM HEPES buffer, pH 7.3, containing 2.47 mM of reduced glutathione (GSH), 0.32 mM of nicotinamide adenine dinucleotide phosphate (NADPH), and 1.23 units/ml of glutathione disulfide reductase (GR), at 37° C., are added, in the following order:
320 μl of 50 mM HEPES buffer, pH 7.3, containing 0.1 mM of DTPA, pre-equilibrated at 37° C.
30 μl of a 5 mM ethanolic mother-solution of the compound under test or 30 μl of absolute ethanol (blank). Each compound is tested at a final concentration of 81 μM.
The final reaction volume is 1850 μl.
The glutathione oxidase activity is assayed at 37° C. by measuring the reduction in absorbance at 340 nm over 5 minutes. The said initial enzymatic rate or activity is proportional to the slope of the plot of absorbance against time.
The catalytic activity for oxygen reduction in the compounds under test corresponds to the rate of consumption of NADPH.
Furthermore, the effects of superoxide dismutase (SOD), catalase, iodoacetamide (IAA) and Se-GPx on the glutathione oxidase activity of the tested compounds have been studied.
the necessary and sufficient quantity, variable according to the case, of 50 mM HEPES, pH 7.3, containing 0.1 mM of DTPA, pre-equilibrated at 37° C.; the final reaction volume being 1850 μl.
either 100 μl of a solution of 1850 units/ml of SOD in water of ultrapure quality,
or 100 μl of a solution of 1850 units/ml of catalase in water of ultrapure quality and 100 μl of a solution of 1850 units/ml of SOD in water of ultrapure quality,
or 150 μl of a 6.2 mM solution of iodoacetamide in 50 mM HEPES buffer, pH 7.3, containing 0.1 mM DTPA,
or 100 μl of a solution of 10 units/ml of glutathione peroxidase Se-GPx in 50 mM HEPES buffer, pH 7.3, containing 0.1 mM of DTPA,
or 100 μl of a solution of 1850 units/ml of SOD in water of ultrapure quality, and 100 μl of a solution of 10 units/ml of glutathione peroxidase Se-GPx in 50 mM HEPES buffer, pH 7.3, containing 0.1 mM of DTPA.
30 μl of a 5 mM ethanolic mother-solution of the compound under test.
The glutathione oxidase activity is assayed at 37° C. by monitoring the decrease in the absorbance at 340 nm over 15 minutes. The said initial enzymatic rate or activity is proportional to the slope of the plot of absorbance against time.
The consumption of NADPH has been calculated from the slopes of the curves obtained (OD/minute): [formula]
Vt=total volume of the reaction =1850 μl
ε=molar extinction coefficient of NADPH=[…]. M^−1. cm^−1
They are expressed in nmoles of NADPH oxidized per minute.

SMILES	melting point	mortality at 0.195 µM ([1]; 24 h)	mortality at 0.195 µM ([1]; 48 h)	mortality at 0.391 µM ([1]; 24 h)	mortality at 0.391 µM ([1]; 48 h)	mortality at 0.781 µM ([1]; 24 h)	mortality at 0.781 µM ([1]; 48 h)	mortality at 1.562 µM ([1]; 24 h)	mortality at 1.562 µM ([1]; 48 h)	mortality at 3.125 µM ([1]; 24 h)	mortality at 3.125 µM ([1]; 48 h)	mortality at 6.25 µM ([1]; 24 h)	mortality at 6.25 µM ([1]; 48 h)	mortality at 12.5 µM ([1]; 24 h)	mortality at 12.5 µM ([1]; 48 h)	mortality at 25 µM ([1]; 24 h)	mortality at 25 µM ([1]; 48 h)	mortality at 50 µM ([1]; 24 h)	mortality at 50 µM ([1]; 48 h)	further results
CC(=O)N1CC(C)(C)c2cccc([N+](=O)[O-])c2[Se]1	127 °C																			
CC12CCC3c4ccc(O)cc4CC(CCCCCCCC(=O)N4[Se]c5c([N+](=O)[O-])cccc5C4(C)C)C3C1CCC2O (stereo not shown)	128 °C																			
CC1(C)c2cccc([N+](=O)[O-])c2[Se]N1CCO [Bxt-57001, N-(2-hydroxyethyl)-3,3-dimethyl-7-nitrobenzisoselenazoline]		0%	0%	0%	0%	16.9%	0%	29.4%	20%	23.9%	23.3%	55%	41.2%	75.3%	58.5%	99.1%	99.8%	99.8%	100%	
CC1(C)CN[Se]c2c([N+](=O)[O-])cccc21	108 °C																			
CC/C(=C(\c1ccccc1)c1ccc(OCCN2[Se]c3c([N+](=O)[O-])cccc3C2(C)C)cc1)c1ccccc1 [Bxt-57007, N-{2-[4-(1,2-diphenylbut-1-en-1-yl)phenoxy]ethyl}3,3-dimethyl-7-nitrobenzisoselenazoline]		0%	1.07%	1.02%	8.42%	8.39%	14.2%	12.9%	25.1%	13.3%	18.7%	19.4%	33.2%	28.6%	44.6%	36.6%	46.8%	40.8%	46.3%	
CC(=O)N1[Se]c2c([N+](=O)[O-])cccc2C1(C)C [Bxt-57004, N-acetyl-3,3-dimethyl-7-nitrobenzisoselenazoline]		0%	17.4%	3.19%	12.8%	34.9%	38.6%	59.4%	60.5%	71.2%	69.1%	73.3%	76.4%	79.8%	75.8%	92.8%	88.4%	100%	100%	
CC1(C)N[Se]c2c([N+](=O)[O-])cccc21 [Bxt-51062, 3,3-Dimethyl-7-nitrobenzisoselenazoline]		0%	2.22%	0%	0%	23.6%	32.5%	42.7%	58.5%	70.1%	83%	100%	100%	100%	100%	100%	100%	100%	100%	GSH oxidase activity, nmole NADPH oxidized/min ([2]; compound + GSH + GR-NADPH + SOD and CAT): 79.29 nmole NADPH oxidized/min; GSH oxidase activity, nmole NADPH oxidized/min ([2]; compound + GSH + GR-NADPH + SOD): 78.78 nmole NADPH oxidized/min; GSH oxidase activity, nmole NADPH oxidized/min ([2]; compound + GSH + GR-NADPH + Se-GPx and SOD): 78.45 nmole NADPH oxidized/min; GSH oxidase activity, nmole NADPH oxidized/min ([2]; compound + GSH + GR-NADPH + Se-GPx): 80.61 nmole NADPH oxidized/min; GSH oxidase activity, nmole NADPH oxidized/min ([2]; compound + GSH + GR-NADPH ± IAA (iodoacetamide)): 76.25 nmole NADPH oxidized/min; GSH oxidase activity, nmole NADPH oxidized/min ([2]; compound + GSH + GR-NADPH, no further effector): 77.17 nmole NADPH oxidized/min
CC12CCC3c4ccc(O)cc4CC(CCCCCCCCN4[Se]c5c([N+](=O)[O-])cccc5C4(C)C)C3C1CCC2O (stereo not shown)	95 °C																			

— patent publication US6407083B1, “Uses of novel organoselenium compounds with pro-oxidant activity” (Oxis International, Inc., priority 1996, dated 2002)
